These results are taken from PubChem BioAssay (NCI).

Molecules are shown by their SMILES.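 Following 48 hours of exposure in 96-well plates, responses at five concentrations were used to interpolate endpoints linearly. GI50: concentration for 50% inhibition of growth. At the TGI there is no net growth.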

Test systems include U251 CNS; TK-10 renal; CCRF-CEM leukemia; CAKI-1 renal; BT-549 breast; HCC-2998 colon; HS 578T breast; KM12 colon; MCF7 breast; COLO 205 colon.
What all share (test): DTP human tumour cell line panel, 48 h

As usually defined, the TGI is the concentration giving total growth inhibition. For `N#Cc1ccccc1NC(=O)C(=O)c1c(O)c2ccccc2oc1=O`, the total growth inhibition concentration (TGI) in the test with U251 CNS, in the test on TK-10 renal, in the test with CCRF-CEM leukemia, in the test with CAKI-1 renal, in the test on BT-549 breast and in the test on HCC-2998 colon was over 100 µM throughout. For the same molecule, the TGI with HS 578T breast, with KM12 colon and with MCF7 breast was over 100 µM each time.

As usually defined, the GI50 is the concentration giving 50% growth inhibition. For the molecule `C[C@H](Nc1ncnc2nc[nH]c12)c1cc2ccc(F)cc2nc1-c1ccccn1`, the GI50 with U251 CNS was over 100 µM; in the test with TK-10 renal, 47.4 µM; with CCRF-CEM leukemia, over 70.2 µM; in the test with CAKI-1 renal it was 33.7 µM; in the test with BT-549 breast, 36.2 µM; in the test with HCC-2998 colon it was over 100 µM. Besides, the GI50 in the test with HS 578T breast was 18.7 µM; in the test with COLO 205 colon, over 100 µM; with KM12 colon, over 100 µM; with MCF7 breast, 28.4 µM. Also, the TGI with U251 CNS, in the test on TK-10 renal, in the test with CCRF-CEM leukemia, in the test with CAKI-1 renal, with BT-549 breast and with HCC-2998 colon was over 100 µM each time. Moreover, the TGI in the test on HS 578T breast, in the test with COLO 205 colon, with KM12 colon and in the test with MCF7 breast was over 100 µM in each case.

As to `Nc1nc2c(s1)CCc1c-2c(Br)n(Cc2ccccc2)c1Br`, the GI50 in the test on U251 CNS is 14 µM; in the test with TK-10 renal, 4.41 µM; in the test on CCRF-CEM leukemia, 0.534 µM; in the test with CAKI-1 renal it was 3.14 µM; in the test on BT-549 breast it was 15.1 µM; with HCC-2998 colon, 18 µM. The GI50 in the test with HS 578T breast is 25.7 µM; in the test with COLO 205 colon, 2.53 µM; in the test with KM12 colon, 14 µM; with MCF7 breast, 11.9 µM. In addition, the TGI in the test with U251 CNS is 28.2 µM; in the test with TK-10 renal it was 14.9 µM; in the test with CCRF-CEM leukemia, 11.9 µM; in the test on CAKI-1 renal, 12.1 µM; in the test on BT-549 breast, 30.2 µM; in the test with HCC-2998 colon it was 33.7 µM. For the same molecule, the TGI with HS 578T breast was found to be 93.8 µM; in the test with COLO 205 colon it was 5.13 µM; in the test with KM12 colon it was 33.3 µM; in the test on MCF7 breast, 28.6 µM.

Turning to `COc1ccc(C(SCC(N)C(=O)O)(c2ccccc2)c2ccccc2)cc1` (stereo not given), the GI50 is 0.0497 µM in the test on U251 CNS; 20.6 µM with TK-10 renal; 0.0992 µM in the test on CCRF-CEM leukemia; 0.457 µM with CAKI-1 renal; 2.72 µM in the test with BT-549 breast; 0.246 µM in the test on HCC-2998 colon. Also, the GI50 was 0.0432 µM in the test on HS 578T breast, 0.3 µM with COLO 205 colon, 0.239 µM with KM12 colon and 0.0385 µM with MCF7 breast. Further, the TGI in the test on U251 CNS is over 57 µM; with TK-10 renal, over 100 µM; in the test on CCRF-CEM leukemia, over 100 µM; in the test on CAKI-1 renal, over 100 µM; in the test with BT-549 breast, over 100 µM; in the test with HCC-2998 colon, 12.2 µM. Also, the TGI with HS 578T breast is 3.1 µM; in the test on COLO 205 colon, 15.8 µM; in the test on KM12 colon, 21.3 µM; in the test with MCF7 breast, over 100 µM.

As for `O=C1c2ccccc2S(=O)(=O)N1CSC(=S)N1CCCCC1`, the GI50 in the test with U251 CNS, with TK-10 renal, with CAKI-1 renal, in the test with BT-549 breast, in the test on HCC-2998 colon and with HS 578T breast was over 100 µM throughout. In addition, the GI50 is over 100 µM in the test with COLO 205 colon and over 55.7 µM in the test on KM12 colon. Besides, the TGI in the test on U251 CNS, in the test on TK-10 renal, in the test on CAKI-1 renal, in the test on BT-549 breast, in the test with HCC-2998 colon and in the test with HS 578T breast was over 100 µM throughout. The TGI in the test with COLO 205 colon, in the test on KM12 colon and in the test on MCF7 breast was over 100 µM throughout.

Consider `COc1ccc2cc(-c3cc4c(oc3=O)-c3ccccc3OC4O)c(=O)oc2c1` (stereo not given), for which the GI50 was 16.4 µM with U251 CNS; 19.9 µM in the test on TK-10 renal; 19.7 µM in the test with CCRF-CEM leukemia; 14.9 µM in the test on CAKI-1 renal; 14.7 µM with BT-549 breast; 20.8 µM with HS 578T breast. For the same molecule, the GI50 in the test with COLO 205 colon is 16.1 µM; in the test on KM12 colon, 18.2 µM; in the test with MCF7 breast, 17.1 µM. Moreover, the total growth inhibition concentration (TGI) in the test with U251 CNS was 31.4 µM; with TK-10 renal, 37 µM; with CCRF-CEM leukemia it was 64.7 µM; in the test with CAKI-1 renal, 29.8 µM; in the test with BT-549 breast, 28.2 µM; in the test with HS 578T breast it was 45.1 µM. Further, the TGI in the test on COLO 205 colon worked out at 33.4 µM; in the test on KM12 colon, 34.9 µM; with MCF7 breast, 34.1 µM.

With `O=C1c2nsnc2C(=O)c2c(F)c(F)c(F)c(F)c21`, the GI50 was 1.38 µM with U251 CNS; 0.71 µM in the test on TK-10 renal; 0.117 µM in the test on CCRF-CEM leukemia; 1.49 µM with BT-549 breast; 1.56 µM in the test with HCC-2998 colon; 0.342 µM in the test with HS 578T breast. Moreover, the GI50 with COLO 205 colon is 0.236 µM; in the test with KM12 colon, 1.4 µM; with MCF7 breast, 0.398 µM. Further, the TGI with U251 CNS was 2.94 µM; in the test with TK-10 renal, 1.92 µM; in the test with CCRF-CEM leukemia, 0.542 µM; in the test on BT-549 breast, 2.83 µM; with HCC-2998 colon, 3.14 µM; with HS 578T breast, 1.96 µM. Moreover, the TGI turned out to be 0.527 µM with COLO 205 colon, 3.29 µM in the test on KM12 colon and 2.19 µM in the test on MCF7 breast.

For `CC1COc2c(N3CCN(C)CC3)c(F)cc3c(=O)c(C(=O)O)cn1c23` (stereo not given), the GI50 with U251 CNS, with TK-10 renal, in the test on CCRF-CEM leukemia, in the test with CAKI-1 renal, with BT-549 breast and in the test with HS 578T breast was over 100 µM in each case. Besides, the GI50 in the test on COLO 205 colon, in the test with KM12 colon and in the test on MCF7 breast was over 100 µM in each case. Besides, the TGI in the test on U251 CNS, with TK-10 renal, in the test with CCRF-CEM leukemia, in the test on CAKI-1 renal, in the test on BT-549 breast and in the test with HS 578T breast was over 100 µM in each case. Besides, the TGI with COLO 205 colon, with KM12 colon and in the test with MCF7 breast was over 100 µM throughout.
